Converted amounts (≈) assume the structure as drawn. “And” between values parts separate entries of the source, which are not always exact repeats. Identical values can stand only once.
Key:
Assay type in all cases: functional
Mus musculus [1] = test: In vivo antiparasitic activity against Trypanosoma brucei was tested at 25 mg/kg. Average survival time of the mice was determined
Mus musculus [2] = test: In vivo antiparasitic activity against Trypanosoma brucei was tested at […]. Percent of mice cured after oral administration
Mus musculus [3] = test: In vivo antiparasitic activity against Trypanosoma brucei was tested at […]. Range of survival of mice.
Leishmania donovani [4] = test: % Suppression = 100 - 100(LDUs of experimental / LDUs of control).
Leishmania donovani [5] = test: % Suppression = 100 - 100(LDUs of experimental / LDUs of control) at
Mus musculus [6] = organism: Mus musculus; test: LDUs (Leishmania Donovan Units) in liver The liver parasite burden expressed as Leishmania Donovanii units
Mus musculus [7] = organism: Mus musculus; test: LDUs (Leishmania Donovan Units) in liver The liver parasite burden expressed as Leishmania Donovanii units at
Trypanosoma cruzi = test: In vitro antiparasitic activity against Trypanosoma cruzi was determined; conditions: read-out: ED50 (the source's name)
[8] = system: Trypanosoma brucei gambiense; test: In vitro antiparasitic activity against Trypanosoma gambiense was determined; conditions: read-out: ED50 (the source's name)
Trichomonas vaginalis = test: In vitro antiparasitic activity against […] was determined; conditions: read-out: ED50 (the source's name)
Trypanosoma brucei [9] = test: In vivo antiparasitic activity against Trypanosoma brucei was tested at 10 mg/kg. Range of survival of mice; 4-11
Trypanosoma brucei [10] = test: In vivo antiparasitic activity against Trypanosoma brucei was tested at 1 mg/kg. Range of survival of mice; 4-5
Trypanosoma brucei [11] = test: In vivo antiparasitic activity against Trypanosoma brucei was tested at 20 mg/kg. Range of survival of mice; 4-11
Trypanosoma brucei [12] = test: In vivo antiparasitic activity against Trypanosoma brucei was tested at 50 mg/kg (i.v.). Range of survival of mice; 4-12; conditions: route intravenous
Trypanosoma brucei [13] = test: In vivo antiparasitic activity against Trypanosoma brucei was tested at 50 mg/kg (p.o.). Range of survival of mice; 10-14; conditions: route oral
Trypanosoma brucei [14] = test: In vivo antiparasitic activity against Trypanosoma brucei was tested at 50 mg/kg. Range of survival of mice; 10-4
Trypanosoma brucei [15] = test: In vivo antiparasitic activity against Trypanosoma brucei was tested at 5 mg/kg. Range of survival of mice; 4-6
Trypanosoma brucei [16] = test: In vivo antiparasitic activity against Trypanosoma brucei was tested. Range of survival of mice.
Trypanosoma brucei [17] = test: In vivo antiparasitic activity against Trypanosoma brucei was tested at 20 mg/kg. Average survival time of the mice taken in this experiment.
Trypanosoma brucei [18] = test: In vivo antiparasitic activity against Trypanosoma brucei was tested at 50 mg/kg (i.v.). Average survival time of the mice taken in this experiment.; conditions: route intravenous
Trypanosoma brucei [19] = test: In vivo antiparasitic activity against Trypanosoma brucei was tested at 50 mg/kg (p.o.). Average survival time of the mice taken in this experiment.; conditions: route oral
Trypanosoma brucei [20] = test: In vivo antiparasitic activity against Trypanosoma brucei was tested at 50 mg/kg. Average survival time of the mice taken in this experiment.
Trypanosoma brucei [21] = test: In vivo antiparasitic activity against Trypanosoma brucei was tested at 5 mg/kg. Average survival time of the mice taken in this experiment.
Trypanosoma brucei [22] = test: In vivo antiparasitic activity against Trypanosoma brucei was tested. Average survival time of the mice taken in this experiment.
Trypanosoma brucei [23] = test: In vivo antiparasitic activity against Trypanosoma brucei was tested at 10 mg/kg. Percent of mice cured after administering the compound.
Trypanosoma brucei [24] = test: In vivo antiparasitic activity against Trypanosoma brucei was tested at 1 mg/kg Percent of mice cured after oral administration
Trypanosoma brucei [25] = test: In vivo antiparasitic activity against Trypanosoma brucei was tested at 20 mg/kg. Percent of mice cured after administering the compound.
Trypanosoma brucei [26] = test: In vivo antiparasitic activity against Trypanosoma brucei was tested at 50 mg/kg (i.v.).. Percent of mice cured after administering the compound.; conditions: route intravenous
Trypanosoma brucei [27] = test: In vivo antiparasitic activity against Trypanosoma brucei was tested at 50 mg/kg (p.o.). Percent of mice cured after administering the compound.; conditions: route oral
Trypanosoma brucei [28] = test: In vivo antiparasitic activity against Trypanosoma brucei was tested at 50 mg/kg. Percent of mice cured after administering the compound.
Trypanosoma brucei [29] = test: In vivo antiparasitic activity against Trypanosoma brucei was tested at 5 mg/kg. Percent of mice cured after administering the compound.
Trypanosoma brucei [30] = test: In vivo antiparasitic activity against Trypanosoma brucei was tested. Percent of mice cured after administering the compound.
Trypanosoma brucei [31] = test: In vivo antiparasitic activity against Trypanosoma brucei was tested at 10 mg/kg. Average survival time of the mice taken in this experiment.
Trypanosoma brucei [32] = test: In vivo antiparasitic activity against Trypanosoma brucei was tested at 1 mg/kg. Average survival time of the mice was determined
Giardia intestinalis = test: In vitro antiparasitic activity against Giardia lamblia was determined; conditions: Giardia duodenalis; read-out: ED50 (the source's name)
Leishmania donovani [33] = test: In vitro antiparasitic activity against Leishmania donovani was determined; conditions: read-out: ED50 (the source's name)
Leishmania donovani [34] = test: % […] = 100 - 100(LDUs of experimental / LDUs of control).
Mus musculus [35] = test: In vivo LDUs (Leishmania Donovan Units) in liver of mouse at a dose of 10 mg/kg/day
Mus musculus [36] = test: In vivo LDUs (Leishmania Donovan Units) in liver of mouse at a dose of 20 mg/kg/day
Mus musculus [37] = test: In vivo LDUs (Leishmania Donovan Units) in liver of mouse at a dose of 50 mg/kg/day

O=C1N=CN=C2C1N=CC2[C@@H]1O[C@H](CO)[C@@H](O)[C@H]1O (stereo partly specified)
Average survival (Mus musculus [1]): 35 days
Cured (Mus musculus [2]): 100%
Range of survival (Mus musculus [3]): 35

NC(=O)c1ncn(C2O[C@H](COS(N)(=O)=O)[C@@H](O)[C@H]2O)n1 (stereo partly specified)
Suppression (Leishmania donovani [4]): 50% and 67%
Suppression (Leishmania donovani [5]): 18%
Activity (Mus musculus [6]): 765 and 501
Activity (Mus musculus [7]): 1244
EC50 (Trypanosoma cruzi): > 50 µg/mL
EC50 [8]: 0.01 µg/mL (≈ 0.0309 µM)
EC50 (Trichomonas vaginalis): > 25 µg/mL
Range of survival (Trypanosoma brucei [9]): 4
Range of survival (Trypanosoma brucei [10]): 4
Range of survival (Trypanosoma brucei [11]): 4
Range of survival (Trypanosoma brucei [12]): 4
Range of survival (Trypanosoma brucei [13]): 10
Range of survival (Trypanosoma brucei [14]): 4
Range of survival (Trypanosoma brucei [15]): 4
Range of survival (Trypanosoma brucei [16]): 5
Average survival (Trypanosoma brucei [17]): 7.4 days
Average survival (Trypanosoma brucei [18]): 6.4 days
Average survival (Trypanosoma brucei [19]): 11.6 days
Average survival (Trypanosoma brucei [20]): 6.4 days
Average survival (Trypanosoma brucei [21]): 4.8 days
Average survival (Trypanosoma brucei [22]): 3.4 days
Cured (Trypanosoma brucei [23]): 0%
Cured (Trypanosoma brucei [24]): 0%
Cured (Trypanosoma brucei [25]): 0%
Cured (Trypanosoma brucei [26]): 0%
Cured (Trypanosoma brucei [27]): 0%
Cured (Trypanosoma brucei [28]): 0%
Cured (Trypanosoma brucei [29]): 0%
Cured (Trypanosoma brucei [30]): 0%
Average survival (Trypanosoma brucei [31]): 7.4 days
Average survival (Trypanosoma brucei [32]): 4.6 days
EC50 (Giardia intestinalis): 10 µg/mL (≈ 30.9 µM)
EC50 (Leishmania donovani [33]): 0.03 µg/mL (≈ 0.0928 µM)

NC(=S)c1ncn(C2O[C@H](COS(N)(=O)=O)[C@@H](O)[C@H]2O)n1 (stereo partly specified)
Suppression (Leishmania donovani [4]): 0%
Suppression (Leishmania donovani [34]): 0%
Activity (Mus musculus [35]): 1039
Activity (Mus musculus [36]): 1143
Activity (Mus musculus [37]): 1514
EC50 (Trypanosoma cruzi): > 50 µg/mL
EC50 [8]: 0.5 µg/mL (≈ 1.47 µM)
EC50 (Trichomonas vaginalis): 15 µg/mL (≈ 44.2 µM)
EC50 (Giardia intestinalis): > 25 µg/mL
EC50 (Leishmania donovani [33]): 2.5 µg/mL (≈ 7.37 µM)

N#Cc1ncn(C2O[C@H](COS(N)(=O)=O)[C@@H](O)[C@H]2O)n1 (stereo partly specified)
EC50 (Trypanosoma cruzi): > 50 µg/mL
EC50 [8]: 1 µg/mL (≈ 3.28 µM)
EC50 (Trichomonas vaginalis): > 25 µg/mL
EC50 (Giardia intestinalis): > 25 µg/mL
EC50 (Leishmania donovani [33]): 1 µg/mL (≈ 3.28 µM)
